{
  "source": "ChEMBL document CHEMBL5661943",
  "about": "“ASAP - In vitro antiviral effect” (2024)",
  "key": {"[1]": {"tested_on": "Zika virus", "experiment": "(§1) Functional immunofluorescence assay to measure dose dependent changes in antiviral-drug inhibitory efficacy against Zika virus PRVABC59 in Vero E6/TMPRSS2 cells. Cells are treated with antiviral candidates that are serially diluted, following infection, cells are fixed. EC50 is reported via analysis of immunofluorescence staining. The assay has been performed by Icahn School of Medicine at Mount Sinai.", "assay_type": "organism-based, Chlorocebus sabaeus", "conditions": "for EC50: VeroE6/TMPRSS2"}, "[2]": {"tested_on": "dengue virus type 2", "experiment": "as §1, with “Dengue” for “Zika”, “type 2 Thailand/16681/84” for “PRVABC59”", "assay_type": "organism-based, Chlorocebus sabaeus", "conditions": "for EC50: VeroE6/TMPRSS2"}, "[3]": {"tested_on": "Zika virus", "experiment": "EC50 is reported via analysis of immunofluorescence staining. The assay has been performed by Icahn School of Medicine at Mount Sinai.", "assay_type": "functional, organism-based, Chlorocebus sabaeus, VeroE6/TMPRSS2"}, "[4]": {"tested_on": "Zika virus", "experiment": "(§2) Functional CPE-based assay to measure dose dependent changes in antiviral-drug inhibitory efficacy against Zika virus MR766 in Vero E6 miRFP670 cells. Cells are treated with antiviral candidates that are serially diluted. EC50 is reported via analysis of MTS assay as a readout of CPE. The assay has been performed by KU Leuven.", "assay_type": "organism-based, Chlorocebus sabaeus, Vero C1008", "conditions": "Zika virus"}, "[5]": {"tested_on": "dengue virus type 2", "experiment": "Functional assay to measure dose dependent changes in antiviral-drug inhibitory efficacy against Dengue virus type 2 New Guinea C in Vero E6 miRFP670 cells (cotreated with P-gp inhibitor, CP100356). Cells are treated with antiviral candidates that are serially diluted, following infection, cells are fixed. EC50 is reported via analysis of fluorescence intensity using high-content imager. The …", "assay_type": "organism-based, Chlorocebus sabaeus, Vero C1008", "conditions": "Dengue virus; for EC90: P-gp concentration 500 nM, P-gp inhibitor CP100356"}, "[6]": {"tested_on": "dengue virus type 2", "experiment": "as §1, with “Dengue” for “Zika”, “type 2 Thailand/16681/84” for “PRVABC59”, “cells (cotreated with P-gp inhibitor, Elacridar).” for “cells.”", "assay_type": "organism-based, Chlorocebus sabaeus, VeroE6/TMPRSS2", "conditions": "for EC90: Baseline response 0 %, Maximum response 100 %, P-gp concentration 2 uM, P-gp inhibitor Elacidar"}, "[7]": {"tested_on": "dengue virus type 2", "experiment": "as §2, with “Dengue” for “Zika”, “type 2 New Guinea C” for “MR766”, “Huh7” for “Vero E6 miRFP670”, “MTT/MTS” for “MTS”, “National Institute of Allergy and Infectious Diseases.” for “KU Leuven.”", "assay_type": "organism-based, Homo sapiens", "conditions": "Huh-7"}},
  "note": "Values joined by “and” are separate entries in the source; they are usually repeats but may differ in a detail not shown here. Equal entries are not always repeated.",
  "data": [
    {"smiles": "NCCc1cccc(NC(=O)[C@H]2[C@H]3CCCCC[C@H]3[C@H]2NC(=O)OCc2ccccc2)c1", "values": [
      {"measurement": "EC50", "setting": "[1]", "result": 16.3, "unit": "µM"},
      {"measurement": "EC90", "setting": "[1]; VeroE6/TMPRSS2, Baseline response 0 %, Hill slope -67.816, Maximum measured 128.901 %, Maximum response 100 %, Minimum measured 6.251 %, R squared 0.855", "result": 16.9, "unit": "µM"},
      {"measurement": "EC50", "setting": "[2]", "result": "> 1.85", "unit": "µM"},
      {"measurement": "EC90", "setting": "[2]; VeroE6/TMPRSS2, Maximum measured 147.779 %, Minimum measured 82.782 %", "result": "> 1.85", "unit": "µM"},
      {"measurement": "EC50", "setting": "[3]; Zika virus, VeroE6/TMPRSS2", "result": 1.51, "unit": "µM"},
      {"measurement": "EC90", "setting": "[3]; Zika virus, VeroE6/TMPRSS2", "result": 27.9, "unit": "µM"},
      {"measurement": "EC50", "setting": "[4]; Vero C1008", "result": "> 50", "unit": "µM"},
      {"measurement": "EC90", "setting": "[4]; Vero C1008, Baseline response 0 %, Hill slope 0.101, Maximum measured 6.245 %, Maximum response 100 %, Minimum measured -3.134 %, R squared 0.013", "result": "> 50", "unit": "µM"},
      {"measurement": "EC50", "setting": "[5]; Vero C1008", "result": 8.83, "unit": "µM"},
      {"measurement": "EC90", "setting": "[5]; Vero C1008, Baseline response 0 %, EC90 CI (lower) 4.071 uM, EC90 CI (upper) 8.838 uM, Hill slope -5.677, Maximum measured 107.479 %, Maximum response 100 %, Minimum measured 11.429 %, R squared 0.889", "result": 13, "unit": "µM"},
      {"measurement": "EC50", "setting": "[6]; Dengue virus, VeroE6/TMPRSS2", "result": 0.852, "unit": "µM"},
      {"measurement": "EC90", "setting": "[6]; Dengue virus, VeroE6/TMPRSS2, Hill slope -0.607, Maximum measured 105.284 %, Minimum measured 41.503 %, R squared 0.471", "result": "> 1.85", "unit": "µM"}
    ]},
    {"smiles": "NCc1ccc(-c2ncc(OCC3CCNCC3)nc2-c2ccc(C3CCOCC3)cc2)cc1", "values": [
      {"measurement": "EC50", "setting": "[7]", "result": "> 32", "unit": "µM"}
    ]},
    {"smiles": "Cc1[nH]c2ccccc2c1CN1CCC(c2c[nH]c3ncccc23)CC1", "values": [
      {"measurement": "EC50", "setting": "[1]", "result": 13.1, "unit": "µM"},
      {"measurement": "EC90", "setting": "[1]; VeroE6/TMPRSS2, Baseline response 0 %, Hill slope -0.459, Maximum measured 94.623 %, Maximum response 100 %, Minimum measured 4.56 %, R squared 0.472", "result": "> 50", "unit": "µM"},
      {"measurement": "EC50", "setting": "[2]", "result": "> 16.7", "unit": "µM"},
      {"measurement": "EC90", "setting": "[2]; VeroE6/TMPRSS2, Baseline response 0 %, Hill slope -0.265, Maximum measured 113.218 %, Maximum response 100 %, Minimum measured 41.507 %, R squared 0.203", "result": "> 16.7", "unit": "µM"},
      {"measurement": "EC90", "setting": "[3]; Baseline response 0 %, EC90 CI (lower) 0.367 uM, EC90 CI (upper) 8.175 uM, Hill slope -1.726, Maximum measured 163.583 %, Maximum response 100 %, Minimum measured 5.054 %, P-gp concentration 2 uM, R squared 0.694, P-gp inhibitor Elacidar", "result": 22.1, "unit": "µM"},
      {"measurement": "EC90", "setting": "[3]; Baseline response 0 %, Hill slope -0.27, Maximum measured 107.973 %, Maximum response 100 %, Minimum measured 29.852 %, P-gp concentration 2 uM, R squared 0.23, P-gp inhibitor Elacidar", "result": "> 10", "unit": "µM"},
      {"measurement": "EC50", "setting": "[3]; Zika virus, VeroE6/TMPRSS2", "result": "> 10", "unit": "µM"},
      {"measurement": "EC50", "setting": "[3]; veroe6/tmprss2", "result": 6.19, "unit": "µM"},
      {"measurement": "EC50", "setting": "[4]; Vero C1008", "result": 6.51, "unit": "µM"},
      {"measurement": "EC90", "setting": "[4]; Vero C1008", "result": 7.41, "unit": "µM"},
      {"measurement": "EC50", "setting": "[5]; Vero C1008", "result": 7.05, "unit": "µM"},
      {"measurement": "EC90", "setting": "[5]; Vero C1008, Baseline response 0 %, EC90 CI (lower) 3.837 uM, EC90 CI (upper) 5.899 uM, Hill slope -5.588, Maximum measured 107.944 %, Maximum response 100 %, Minimum measured 3.436 %, R squared 0.982", "result": 10.5, "unit": "µM"},
      {"measurement": "EC90", "setting": "[6]; Hill slope -0.694, Maximum measured 115.257 %, Minimum measured 6.241 %, R squared 0.775", "result": "> 16.7", "unit": "µM"},
      {"measurement": "EC90", "setting": "[6]; Dengue virus, VeroE6/TMPRSS2, Hill slope -0.066, Maximum measured 94.332 %, Minimum measured 44.366 %, R squared 0.022", "result": "> 10", "unit": "µM"},
      {"measurement": "EC50", "setting": "[6]; veroe6/tmprss2", "result": "> 10 µM and 3.01 µM"}
    ]},
    {"smiles": "CCCCCC(=O)N[C@H](C(=O)N1CCCCC1)c1ccc(OCc2ccccc2)cc1", "values": [
      {"measurement": "EC50", "setting": "[7]", "result": "> 19", "unit": "µM"}
    ]},
    {"smiles": "CCCCCC(=O)N[C@H](C(=O)Nc1ccc(C(N)=O)cc1)c1ccc(OCc2ccccc2)cc1", "values": [
      {"measurement": "EC50", "setting": "[7]", "result": "> 32", "unit": "µM"}
    ]},
    {"smiles": "CCCCCC(=O)N[C@H](C(=O)NCc1cccc(CN)c1)c1ccc(OCc2ccccc2)cc1", "values": [
      {"measurement": "EC50", "setting": "[7]", "result": "> 18", "unit": "µM"}
    ]},
    {"smiles": "O=C(Nc1cc(Cl)cc(C(=O)Nc2ccc3c(c2)CNC3)c1)OCc1ccccc1", "values": [
      {"measurement": "EC50", "setting": "[1]", "result": "> 50", "unit": "µM"},
      {"measurement": "EC90", "setting": "[1]; VeroE6/TMPRSS2, Maximum measured 887.776 %, Minimum measured 72.98 %", "result": "> 50", "unit": "µM"},
      {"measurement": "EC50", "setting": "[2]", "result": 0.61, "unit": "µM"},
      {"measurement": "EC90", "setting": "[2]; VeroE6/TMPRSS2, Baseline response 0 %, Hill slope -0.704, Maximum measured 114.373 %, Maximum response 100 %, Minimum measured 21.903 %, R squared 0.634", "result": "> 5.56", "unit": "µM"},
      {"measurement": "EC90", "setting": "[3]; Baseline response 0 %, Hill slope -10.107, Maximum measured 106.671 %, Maximum response 100 %, Minimum measured 12.006 %, P-gp concentration 2 uM, R squared 0.759, P-gp inhibitor Elacidar", "result": "> 5.56", "unit": "µM"},
      {"measurement": "EC50", "setting": "[3]; Zika virus, VeroE6/TMPRSS2", "result": "> 3.33", "unit": "µM"},
      {"measurement": "EC90", "setting": "[3]; Zika virus, VeroE6/TMPRSS2, Baseline response 0 %, Hill slope 0.615, Maximum measured 150.152 %, Maximum response 100 %, Minimum measured 64.245 %, P-gp concentration 2 uM, R squared 0.072, P-gp inhibitor Elacidar", "result": "> 3.33", "unit": "µM"},
      {"measurement": "EC50", "setting": "[3]; veroe6/tmprss2", "result": 4.56, "unit": "µM"},
      {"measurement": "EC50", "setting": "[5]; Vero C1008", "result": "> 50", "unit": "µM"},
      {"measurement": "EC90", "setting": "[5]; Vero C1008, Maximum measured 108.699 %, Minimum measured 64.199 %", "result": "> 50", "unit": "µM"},
      {"measurement": "EC90", "setting": "[6]; Hill slope -0.262, Maximum measured 88.903 %, Minimum measured 51.493 %, R squared 0.387", "result": "> 5.56", "unit": "µM"},
      {"measurement": "EC50", "setting": "[6]; Dengue virus, VeroE6/TMPRSS2", "result": "> 3.33", "unit": "µM"},
      {"measurement": "EC90", "setting": "[6]; Dengue virus, VeroE6/TMPRSS2, Hill slope 0.742, Maximum measured 298.531 %, Minimum measured 53.657 %, R squared 0.04", "result": "> 3.33", "unit": "µM"},
      {"measurement": "EC50", "setting": "[6]; veroe6/tmprss2", "result": "> 5.56", "unit": "µM"}
    ]}
  ]
}
